Source: patent publication US5783703A, “Sulfur-containing compounds method for their use and prodction” (Lederle (Japan), Ltd., priority 1993, dated 1998)
In brackets after ≈: the same amount, converted by molar mass. Like-named read-outs stand apart in the source and are kept apart here.

Tests used:
[1] = test system: E. faecalis; experiment: Antibacterial activities against clinically isolated microorganism; type: cell-based; settings: Enterococcus faecalis, read-out: MIC50 against clinically isolated microorganism
Experimental: (§1) The following strains clinically isolated freshly in Japan were used in this test.
(§2) 2. The test was carried out by the agar plate dilution method in accordance with the standard method of The Japanese Chemotherapy Society. The minimum inhibitory concentration (MIC) was determined in substantially the same manner as the test procedures described in Test I.

[2] = test system: S. epidermidis; experiment: as above; type: cell-based; settings: Staphylococcus epidermidis, 23 strains clinically isolated in Japan
Experimental: as §1, §2

[3] = test system: K. pneumoniae; experiment: as above; type: cell-based; settings: Klebsiella pneumoniae, 23 strains clinically isolated in Japan
Experimental: as §1, §2

[4] = test system: MRSA; experiment: as above; type: cell-based; settings: Staphylococcus aureus, read-out: MIC50 against clinically isolated microorganism
Experimental: as §1, §2

[5] = test system: E. cloacae; experiment: as above; type: cell-based; settings: Enterobacter cloacae, 14 strains clinically isolated in Japan
Experimental: as §1, §2

[6] = test system: S. marcescens; experiment: as above; type: cell-based; settings: Serratia marcescens, 27 strains clinically isolated in Japan
Experimental: as §1
S. marcescens 27 strains
as §2

[7] = Oral absorption study in mice; type: in vivo, mice of ddY strain; settings: 100 mg/kg
Experimental: 5-week-old male mice of ddY strain were used after fasting overnight. The test compounds in 1% physiological saline solution at a dose of 100 mg/kg were administered orally to a group of 2 mice. Blood was taken from the vena jugularis at 15, 30, 60 and 120 minutes after dosing.

[8] = In situ absorption from rat intestinal loop; type: in vivo, rats of Wistar strain; settings: rat jejunal loop, 20 mg/kg
Experimental: 7-week-old male rats of Wistar strain were used after fasting overnight. After anesthetizing the animals with ether, the intestine was exteriorized and an acute loop of 30 cm length was prepared from the upper part of jejunum by ligature of both ends. 0.2% physiological saline solutions of the test compounds were injected at a dose of 20 mg/kg into the loop with a syringe, and the loop was returned. About 0.4 ml blood was taken from the vena jugularis at 10, 30, 60 and 120 minutes after dosing.

[9] = test system: S. aureus Terajima; experiment: Antibacterial test, agar plate dilution method (MIC), standard strains; type: cell-based; settings: Staphylococcus aureus, MH agar, 37° C., 18 hours
Experimental: (§3) The antibacterial activities were tested by an agar plate dilution method in accordance with the standard method of The Japanese Chemotherapy Society [Chemotherapy, Vol. 29, 76-79 (1981)].
(§4) A Mueller-Hinton (MH) agar liquid medium of a test microorganism was cultured overnight at 37° C. and the resultant culture medium was diluted with a buffered saline gelatin (BSG) solution to contain approximately 10^6 cells of the test microorganisms per milliliter, and then the diluted solution was inoculated with a microplanter at the rate of approximately 5 microliters on a MH agar medium containing a test compound. This medium was then incubated at 37° C. for 18 hours. The minimum inhibitory concentration (MIC) is determined as a minimum concentration in which no test microorganism could grow. It is noted here that the test organisms used were all standard strains.

[10] = test system: E. aerogenes ATCC 13048; experiment: as above; type: cell-based; settings: Klebsiella aerogenes, ATCC13048, MH agar, 37° C., 18 hours
Experimental: as §3, §4

[11] = test system: E. coli NIHJ JC-2; experiment: as above; type: cell-based; settings: Escherichia coli, NIHJJC2, MH agar, 37° C., 18 hours
Experimental: as §3, §4

[12] = test system: B. subtilis ATCC 6633; experiment: as above; type: cell-based; settings: Bacillus subtilis, ATCC6633, MH agar, 37° C., 18 hours
Experimental: as §3, §4

[13] = test system: P. rettgeri IFO 3850; experiment: as above; type: cell-based; settings: Providencia rettgeri, IFO3850, MH agar, 37° C., 18 hours
Experimental: as §3, §4

[14] = test system: K. pneumoniae PCI-602; experiment: as above; type: cell-based; settings: Klebsiella pneumoniae, PCI602, MH agar, 37° C., 18 hours
Experimental: as §3, §4

[15] = test system: S. typhimurium 11D971; experiment: as above; type: cell-based; settings: Salmonella enterica, MH agar, 37° C., 18 hours
Experimental: as §3, §4

[16] = test system: M. morganii IFO 3848; experiment: as above; type: cell-based; settings: Morganella morganii, IFO3848, MH agar, 37° C., 18 hours
Experimental: as §3, §4

[17] = test system: S. typhi 901; experiment: as above; type: cell-based; settings: Salmonella enterica, 18 h
Experimental: as §3, §4

[18] = test system: S. paratyphi 1015; experiment: as above; type: cell-based; settings: Salmonella enterica, 18 h
Experimental: as §3, §4

[19] = test system: P. vulgaris OX-19; experiment: as above; type: cell-based; settings: Proteus vulgaris, OX19, MH agar, 37° C., 18 hours
Experimental: as §3, §4

[20] = test system: S. schottmuelleri 8006; experiment: as above; type: cell-based; settings: MH agar, 37° C., 18 hours
Experimental: as §3, §4

[21] = test system: S. aureus MS353; experiment: as above; type: cell-based; settings: Staphylococcus aureus, MH agar, 37° C., 18 hours
Experimental: as §3, §4

[22] = test system: M. luteus ATCC 9341; experiment: as above; type: cell-based; settings: Micrococcus luteus, ATCC9341, MH agar, 37° C., 18 hours
Experimental: as §3, §4

[23] = test system: S. pyogenes Cook; experiment: as above; type: cell-based; settings: Streptococcus pyogenes, MH agar, 37° C., 18 hours
Experimental: as §3, §4

[24] = test system: E. cloacae 963; experiment: as above; type: cell-based; settings: Enterobacter cloacae, MH agar, 37° C., 18 hours
Experimental: as §3, §4

[25] = test system: P. mirabilis IFO 3849; experiment: as above; type: cell-based; settings: Proteus mirabilis, IFO3849, MH agar, 37° C., 18 hours
Experimental: as §3, §4

[26] = test system: P. vulgaris HX-19; experiment: as above; type: cell-based; settings: Proteus vulgaris, HX19, MH agar, 37° C., 18 hours
Experimental: as §3, §4

[27] = test system: S. aureus FDA209P JC-1; experiment: as above; type: cell-based; settings: Staphylococcus aureus, MH agar, 37° C., 18 hours
Experimental: as §3, §4

[28] = test system: S. marcescens IAM 1184; experiment: as above; type: cell-based; settings: Serratia marcescens, IAM1184, MH agar, 37° C., 18 hours
Experimental: as §3, §4

[29] = test system: S. enteritidis G14; experiment: as above; type: cell-based; settings: Salmonella enterica, MH agar, 37° C., 18 hours
Experimental: as §3, §4

[30] = test system: E. coli K-12 C600; experiment: as above; type: cell-based; settings: Escherichia coli, K12C600, MH agar, 37° C., 18 hours
Experimental: as §3, §4

[31] = Storage stability of the crystal at room temperature; type: physicochemical; settings: dehumidified state, one month
Source text: The 3-mercapto-1-(1,3-thiazolin-2-yl)azetidine hydrochloride (8) in the form of crystal obtained in the above Example 6 was left still in dehumidified state at a room temperature for one month.

[32] = mouse, plasma, for (32) and (33) shown as Compound (28)
[33] = 28 strains clinically isolated in Japan
[34] = plasma, for (32) and (33) shown as Compound (28)
[35] = only deesterified Compound (28) detected

CC(C)(O/N=C(\C(=O)N[C@@H]1C(=O)N2C(C(=O)[O-])=C(C[n+]3ccccc3)CS[C@H]12)c1csc(N)n1)C(=O)O [CAZ, ceftazidime]
MIC50 [1]: 25 µg/mL (≈ 45.7 µM) | MIC50 [2]: 12.5 µg/mL (≈ 22.9 µM) | MIC50 [3]: 0.2 µg/mL (≈ 0.366 µM) | MIC50 [4]: 100 µg/mL (≈ 183 µM) | MIC50 [5]: 1.56 µg/mL (≈ 2.85 µM) | MIC50 [6]: 0.39 µg/mL (≈ 0.714 µM)

C[C@@H](O)[C@H]1C(=O)N2C(C(=O)O)=C(SC3CN(C4=NCCS4)C3)[C@H](C)[C@H]12 [Compound (28), (1R,5S,6S)-2-[1-(thiazolin-2-yl)azetidin-3-yl]thio-6-[(R)-1-hydroxyethyl]-1-methyl-carbapen-2-em-3-carboxylic acid]
AUC(0-t) at 2 h [7, 32]: 5000 ng·h/mL | Cmax [7, 32]: 3500 ng/mL | MIC50 [1]: 0.39 µg/mL (≈ 1.02 µM) | MIC50 [2]: 0.39 µg/mL (≈ 1.02 µM) | MIC50 [3]: 0.025 µg/mL (≈ 0.0652 µM) | MIC50 [4, 33]: 0.78 µg/mL (≈ 2.03 µM) | MIC50 [5]: 0.1 µg/mL (≈ 0.261 µM) | AUC(0-t) at 2 h [8, 34]: 1000 ng·h/mL | Cmax [8, 34]: 800 ng/mL | MIC [9]: ≤ 0.006 µg/mL | MIC [10]: 0.1 µg/mL (≈ 0.261 µM) | MIC [11]: 0.013 µg/mL (≈ 0.0339 µM) | MIC [12]: 0.025 µg/mL (≈ 0.0652 µM) | MIC [13]: 0.39 µg/mL (≈ 1.02 µM) | MIC [14]: 0.013 µg/mL (≈ 0.0339 µM) | MIC [15]: 0.025 µg/mL (≈ 0.0652 µM) | MIC [16]: 0.39 µg/mL (≈ 1.02 µM) | MIC [17]: ≤ 0.006 µg/mL | MIC [18]: 0.05 µg/mL (≈ 0.13 µM) | MIC [19]: 0.1 µg/mL (≈ 0.261 µM) | MIC [20]: 0.025 µg/mL (≈ 0.0652 µM) | MIC [21]: ≤ 0.006 µg/mL | MIC [22]: 0.2 µg/mL (≈ 0.522 µM) | MIC [23]: ≤ 0.006 µg/mL | MIC [24]: 0.05 µg/mL (≈ 0.13 µM) | MIC [25]: 0.39 µg/mL (≈ 1.02 µM) | MIC [26]: 0.1 µg/mL (≈ 0.261 µM) | MIC [27]: 0.013 µg/mL (≈ 0.0339 µM) | MIC [28]: 0.05 µg/mL (≈ 0.13 µM) | MIC [29]: 0.39 µg/mL (≈ 1.02 µM) | MIC [30]: 0.1 µg/mL (≈ 0.261 µM) | MIC50 [6]: 0.2 µg/mL (≈ 0.522 µM)

COCOC[C@@H]1CSC(N2CC(SC3=C(C(=O)O)N4C(=O)[C@H]([C@@H](C)O)[C@H]4[C@H]3C)C2)=N1 [Compound (31), (1R,5S,6S)-2-[1-((4R)-methoxymethyloxymethyl-1,3-thiazolin-2-yl)azetidin-3-yl]thio-6-[(R)-1-hydroxyethyl]-1-methyl-carbapen-2-em-3-carboxylic acid]
MIC [9]: ≤ 0.006 µg/mL | MIC [10]: 0.39 µg/mL (≈ 0.852 µM) | MIC [11]: 0.05 µg/mL (≈ 0.109 µM) | MIC [12]: 0.025 µg/mL (≈ 0.0546 µM) | MIC [13]: 6.25 µg/mL (≈ 13.7 µM) | MIC [14]: 0.013 µg/mL (≈ 0.0284 µM) | MIC [15]: 0.1 µg/mL (≈ 0.219 µM) | MIC [16]: 0.2 µg/mL (≈ 0.437 µM) | MIC [17]: 0.05 µg/mL (≈ 0.109 µM) | MIC [18]: 0.05 µg/mL (≈ 0.109 µM) | MIC [19]: 0.1 µg/mL (≈ 0.219 µM) | MIC [20]: 0.2 µg/mL (≈ 0.437 µM) | MIC [21]: 0.025 µg/mL (≈ 0.0546 µM) | MIC [22]: 0.2 µg/mL (≈ 0.437 µM) | MIC [23]: ≤ 0.006 µg/mL | MIC [24]: 0.2 µg/mL (≈ 0.437 µM) | MIC [25]: 0.78 µg/mL (≈ 1.7 µM) | MIC [26]: 0.39 µg/mL (≈ 0.852 µM) | MIC [27]: 0.05 µg/mL (≈ 0.109 µM) | MIC [28]: 0.39 µg/mL (≈ 0.852 µM) | MIC [29]: 0.2 µg/mL (≈ 0.437 µM) | MIC [30]: 0.2 µg/mL (≈ 0.437 µM)

CC(OC(=O)OC1CCCCC1)OC(=O)C1=C(SC2CN(C3=NCCS3)C2)[C@H](C)[C@@H]2[C@@H]([C@@H](C)O)C(=O)N12 (stereo partly drawn) [Compound (33), 1-[(cyclohexyloxy)carbonyloxy] ethyl (1R,5S,6S)-2-[1-(1,3-thiazolin-2-yl)azetidin-3-yl]thio-6-[(R)-1-hydroxyethyl]-1-methylcarbapen-2-em-3-carboxylate]
plasma level of the administered ester itself [7, 35]: undetectable | plasma level of the administered ester itself [8, 35]: undetectable

C[C@@H](O)[C@H]1C(=O)N2C(C(=O)O)=C(SCCN=CN)C[C@H]12 [Imipenem, imipenem]
MIC50 [1]: 0.78 µg/mL (≈ 2.61 µM) | MIC50 [2]: 0.2 µg/mL (≈ 0.668 µM) | MIC50 [3]: 0.2 µg/mL (≈ 0.668 µM) | MIC50 [4, 33]: 3.13 µg/mL (≈ 10.5 µM) | MIC50 [5]: 0.2 µg/mL (≈ 0.668 µM) | MIC50 [6]: 1.56 µg/mL (≈ 5.21 µM)

Cl.SC1CN(C2=NCCS2)C1 [compound (8), 3-mercapto-1-(1,3-thiazolin-2-yl)azetidine hydrochloride]
purity after storage (storage stability) [31]: did not change at all
